What follows are molecules tested against T1, human ALK5 (Homo sapiens, UniProt P36897) (assay: ADP-GLO Kinases assay of ALK5 enzymatic activity). Settings: purified recombinant human ALK5, TGFβ1 peptide substrate, pIC50 converted to pKi by Cheng-Prusoff, high ATP protocol (15 μM) for very potent compounds, 25° C.
T1 construct: human ALK5 (recombinant TGF β1 N-term GST-tagged, 80-end); GST (N); purchased
T1 sequence (P36897 80-503 limits assumed): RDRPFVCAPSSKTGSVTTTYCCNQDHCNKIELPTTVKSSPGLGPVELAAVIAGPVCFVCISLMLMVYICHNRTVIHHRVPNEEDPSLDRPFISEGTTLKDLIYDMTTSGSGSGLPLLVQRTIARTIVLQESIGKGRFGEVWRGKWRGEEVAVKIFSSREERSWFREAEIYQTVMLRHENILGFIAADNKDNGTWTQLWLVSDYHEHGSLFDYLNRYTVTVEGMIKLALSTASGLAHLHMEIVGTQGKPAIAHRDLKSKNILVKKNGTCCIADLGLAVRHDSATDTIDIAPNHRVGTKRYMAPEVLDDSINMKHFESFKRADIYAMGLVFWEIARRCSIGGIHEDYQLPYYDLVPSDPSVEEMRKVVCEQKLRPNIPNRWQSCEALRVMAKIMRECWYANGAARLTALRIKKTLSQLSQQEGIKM
Format: biochemical
Method: The enzymatic activity of compounds of the present invention was monitored measuring the formation of ADP using the ADP-GLO Kinases assay. Following the incubation of the purified enzyme, a substrate and ATP, the produced ADP was converted into ATP, which in turn was converted into light by Ultra-Glo Luciferase. The luminescent signal positively correlated with ADP amount and kinase activity. […] Compound and ALK5 kinase were mixed and incubated for 15 mins. […] After an incubation of 120 min, the reaction was stopped, and ADP production detected with ADP-Glo kit according to manufacturer's indications. […] After an incubation of 60 min, the kinase reaction was stopped, and ADP production detected with ADP-Glo kit according to manufacturer's indications. All reaction and incubation steps were performed at 25° C. and the assays were performed in 384-well format and validated using a selection of reference compounds tested in 11-point concentration-response curve. […] Results were expressed as pIC50 (negative logarithm of IC50) and subsequently converted to pKi (negative logarithm of […]) using the Cheng-Prusoff equation. The higher the value of pKi, the greater the inhibition of ALK5 activity.

Ki	Structure (SMILES)
≤ 0.1 nM	CN1CCN(CCC(=O)Nc2cc(Nc3cc(-c4cc(Cl)ccc4F)nnc3N(C)CC3(C)CCOC3=O)ncn2)CC1 (single isomer, unassigned; enantiomer 1) [Example 138, Enantiomer 1 N-(6-{[6-(5-chloro-2-fluorophenyl)-3-{methyl[(3-methyl-2-oxooxolan-3-yl)methyl]amino}pyridazin-4-yl]amino}pyrimidin-4-yl)-3-(4-methylpiperazin-1-yl)propanamide]
0.126 to 0.316 nM	CN1CCN(CCC(=O)Nc2cc(Nc3cc(-c4cc(Cl)ccc4F)nnc3OCc3ccc4c(c3)OC(C)(C)O4)ccn2)CC1 [Example 116, N-(4-{[6-(5-chloro-2-fluorophenyl)-3-[(2,2-dimethyl-2H-1,3-benzodioxol-5-yl)methoxy]pyridazin-4-yl]amino}pyridin-2-yl)-3-(4-methylpiperazin-1-yl)propanamide]
≤ 0.1 nM	CN1CCN([C@H]2C[C@@H](C(=O)Nc3cc(Nc4cc(-c5cc(Cl)ccc5F)nnc4SCC4COC(C)(C)O4)ccn3)C2)CC1 (stereo partly drawn) [Example 115, Cis N-(4-{[6-(5-chloro-2-fluorophenyl)-3-{[(2,2-dimethyl-1,3-dioxolan-4-yl)methyl]sulfanyl}pyridazin-4-yl]amino}pyridin-2-yl)-3-(4-methylpiperazin-1-yl)cyclobutane-1-carboxamide]
≤ 0.1 nM	COCC1(CN(C)c2nnc(-c3cc(Cl)ccc3F)cc2Nc2ccnc(NC(=O)CCN3CCN(C)CC3)c2)CCOC1=O (single isomer, unassigned) [Example 201, N-(4-{[6-(5-chloro-2-fluorophenyl)-3-({[3-(methoxymethyl)-2-oxooxolan-3-yl]methyl}(methyl)amino)pyridazin-4-yl]amino}pyridin-2-yl)-3-(4-methylpiperazin-1-yl)propanamide]
≤ 0.1 nM	CN1C[C@@H]2C[C@H]1CN2CC(=O)Nc1cc(Nc2cc(-c3cc(Cl)ccc3F)nnc2OCc2cccc(O)c2)ccn1 [Example 120, N-(4-{[6-(5-chloro-2-fluorophenyl)-3-[(3-hydroxyphenyl)methoxy]pyridazin-4-yl]amino}pyridin-2-yl)-2-[(1S,4S)-5-methyl-2,5-diazabicyclo[2.2.1]heptan-2-yl]acetamide]
0.126 to 0.316 nM	COCC1(CN(C)c2nnc(-c3cc(Cl)ccc3F)cc2Nc2ccnc(NC(=O)CCN3CCN(C)CC3)c2)CCOC1=O (single isomer, unassigned) [Example 202, N-(4-{[6-(5-chloro-2-fluorophenyl)-3-({[3-(methoxymethyl)-2-oxooxolan-3-yl]methyl}(methyl)amino)pyridazin-4-yl]amino}pyridin-2-yl)-3-(4-methylpiperazin-1-yl)propanamide]
≤ 0.1 nM	CN1CCN(CC23CC(C(=O)Nc4cc(Nc5cc(-c6cc(Cl)ccc6F)nnc5SCCO)ccn4)(C2)C3)CC1 [Example 180, N-(4-{[6-(5-chloro-2-fluorophenyl)-3-[(2-hydroxyethyl)sulfanyl]pyridazin-4-yl]amino}pyridin-2-yl)-3-[(4-methylpiperazin-1-yl)methyl]bicyclo[11.1.1]pentane-1-carboxamide]
≤ 0.1 nM	O=C(CCN1CCNCC1)Nc1cc(Nc2cc(-c3cc(Cl)ccc3F)nnc2SCCO)ccn1 [Example 153, N-(4-{[6-(5-chloro-2-fluorophenyl)-3-[(2-hydroxyethyl)sulfanyl]pyridazin-4-yl]amino}pyridin-2-yl)-3-(piperazin-1-yl)propanamide]
0.126 to 0.316 nM	CN1CCC(COC(=O)c2cccc(CSc3nnc(-c4cc(Cl)ccc4F)cc3Nc3ccnc4[nH]ccc34)c2)CC1 [Example 206, (1-methylpiperidin-4-yl)methyl 3-({[6-(5-chloro-2-fluorophenyl)-4-({1H-pyrrolo[2,3-b]pyridin-4-yl}amino)pyridazin-3-yl]sulfanyl}methyl)benzoate]
0.126 to 0.316 nM	CN1CCN(CCC(=O)Nc2cc(Nc3cc(-c4cc(Cl)ccc4F)nnc3SCC3(C)CCOC3=O)ccn2)CC1 (centres unmarked) [Example 197, N-(4-{[6-(5-chloro-2-fluorophenyl)-3-{[(3-methyl-2-oxooxolan-3-yl)methyl]sulfanyl}pyridazin-4-yl]amino}pyridin-2-yl)-3-(4-methylpiperazin-1-yl)propanamide]

Continued, molecule first:

Structure (SMILES)	Ki
CN1CCN(CCC(=O)Nc2cc(Nc3cc(-c4cc(Cl)ccc4F)nnc3OCC(F)F)ccn2)CC1 [Example 52, N-(4-{[6-(5-chloro-2-fluorophenyl)-3-(2,2-difluoroethoxy)pyridazin-4-yl]amino}pyridin-2-yl)-3-(4-methylpiperazin-1-yl)propanamide]	0.126 to 0.316 nM
CN1CCN(CCC(=O)Nc2cc(Nc3cc(-c4cc(Cl)ccc4F)nnc3N(C)Cc3cccc(O)c3)ccn2)CC1 [Example 102, N-(4-{[6-(5-chloro-2-fluorophenyl)-3-{[(3-hydroxyphenyl)methyl](methyl)amino}pyridazin-4-yl]amino}pyridin-2-yl)-3-(4-methylpiperazin-1-yl)propanamide]	0.126 to 0.316 nM
CN1CCN(CCC(=O)Nc2cc(Nc3cc(-c4cc(Cl)ccc4F)nnc3N(C)C)ccn2)CC1 [Example 30, N-(4-{[6-(5-chloro-2-fluorophenyl)-3-(dimethylamino)pyridazin-4-yl]amino}pyridin-2-yl)-3-(4-methylpiperazin-1-yl)propanamide]	≤ 0.1 nM
CN1CCC2(CCN(C(=O)Nc3cc(Nc4cc(-c5cc(Cl)ccc5F)nnc4SCCO)ccn3)CC2)C1 [Example 26, N-(4-{[6-(5-chloro-2-fluorophenyl)-3-[(2-hydroxyethyl)sulfanyl]pyridazin-4-yl]amino}pyridin-2-yl)-2-methyl-2,8-diazaspiro[4.5]decane-8-carboxamide]	≤ 0.1 nM
COC(=O)c1sc(Nc2cc(Nc3cc(-c4cc(Cl)ccc4F)nnc3SCCO)ccn2)cc1C1CCN(C)CC1 [Example 92, methyl 5-[(4-{[6-(5-chloro-2-fluorophenyl)-3-[(2-hydroxyethyl)sulfanyl]pyridazin-4-yl]amino}pyridin-2-yl)amino]-3-(1-methylpiperidin-4-yl)thiophene-2-carboxylate]	≤ 0.1 nM
CN1CCN(CCC(=O)Nc2cc(Nc3cc(-c4cc(Cl)ccc4F)nnc3N(C)CCC(O)C(F)(F)F)ccn2)CC1 (centres unmarked) [Example 110, N-(4-{[6-(5-chloro-2-fluorophenyl)-3-[methyl(4,4,4-trifluoro-3-hydroxybutyl)amino]pyridazin-4-yl]amino}pyridin-2-yl)-3-(4-methylpiperazin-1-yl)propanamide]	≤ 0.1 nM
CC(C)OC(=O)C1CN(c2nnc(-c3cc(Cl)ccc3F)cc2Nc2ccnc(NC(=O)CCN3CCN(C)CC3)c2)C1 [Example 100, propan-2-yl 1-[6-(5-chloro-2-fluorophenyl)-4-({2-[3-(4-methylpiperazin-1-yl)propanamido]pyridin-4-yl}amino)pyridazin-3-yl]azetidine-3-carboxylate]	0.126 to 0.316 nM
CN1CCCN(CC(=O)Nc2cc(Nc3cc(-c4cc(Cl)ccc4F)nnc3SCCO)ccn2)CC1 [Example 27, N-(4-{[6-(5-chloro-2-fluorophenyl)-3-[(2-hydroxyethyl)sulfanyl]pyridazin-4-yl]amino}pyridin-2-yl)-2-(4-methyl-1,4-diazepan-1-yl)acetamide]	≤ 0.1 nM
CN1CCN(CCC(=O)Nc2cc(Nc3cc(-c4cc(Cl)ccc4F)nnc3SCCCO)ccn2)CC1 [Example 28, N-(4-{[6-(5-chloro-2-fluorophenyl)-3-[(3-hydroxypropyl)sulfanyl]pyridazin-4-yl]amino}pyridin-2-yl)-3-(4-methylpiperazin-1-yl)propanamide]	≤ 0.1 nM
CN1CCN(CCC(=O)Nc2cc(Nc3cc(-c4cc(Cl)ccc4F)nnc3SC(C)(C)CO)ccn2)CC1 [Example 93, N-(4-{[6-(5-chloro-2-fluorophenyl)-3-[(1-hydroxy-2-methylpropan-2-yl)sulfanyl]pyridazin-4-yl]amino}pyridin-2-yl)-3-(4-methylpiperazin-1-yl)propanamide]	0.126 to 0.316 nM
CN1CCN([C@H]2C[C@@H](C(=O)Nc3cc(Nc4cc(-c5cc(Cl)ccc5F)nnc4SCCO)ncn3)C2)CC1 [Example 91, Cis N-(6-{[6-(5-chloro-2-fluorophenyl)-3-[(2-hydroxyethyl)sulfanyl]pyridazin-4-yl]amino}pyrimidin-4-yl)-3-(4-methylpiperazin-1-yl)cyclobutane-1-carboxamide]	0.126 to 0.316 nM
COC(=O)C1CN(CC(=O)Nc2cc(Nc3cc(-c4cc(Cl)ccc4F)nnc3OCCN(C)C)ccn2)CCN1C (centres unmarked) [Example 12, methyl 4-{[(4-{[6-(5-chloro-2-fluorophenyl)-3-[2-(dimethylamino)ethoxy]pyridazin-4-yl]amino}pyridin-2-yl)carbamoyl]methyl}-1-methylpiperazine-2-carboxylate]	0.126 to 0.316 nM
Nc1cc(Nc2cc(-c3cc(Cl)ccc3F)nnc2OCC(F)(F)F)ccn1 [Example 49, N4-[6-(5-chloro-2-fluorophenyl)-3-(2,2,2-trifluoroethoxy)pyridazin-4-yl]pyridine-2,4-diamine]	0.398 to 3.16 nM

Reference: US20250011299A1, “PYRIDAZINYL AMINO DERIVATIVES AS ALK5 INHIBITORS” (CHIESI FARMACEUTICI S.P.A., priority 2021, published 2025)
